Ends that are not written are not given here.
Tests used:
[1] = test system: Hyaluronidase (Type II from Sheep Testes); assay: Protection of hyaluronic acid from hyaluronidase degradation (dynamic viscosity); format: biochemical; details: 0.5 wt % HA, 75:1 treatment to HA molar ratio
Description: Dynamic viscosity values of HA solutions were determined using the AR-G2. High molecular weight HA solutions have a large viscosity due to the extensive chain entanglement caused by the long chain length. Hyaluronidase (Type II from Sheep Testes, Sigma) cleaves the HA chain, creating shorter chains with less entanglement. The shorter HA chains will have a measurably lower viscosity. HA solutions were incubated with 100 units/mL hyaluronidase. Dynamic viscosities were determined using a time sweep with constant angular frequency and oscillatory stress initially and at 2 and 4-hour timepoints. Samples (at 0.5 wt % HA) consisted of HA, HA+CS, and HA+10.5GAH−CS. The treatment values were added at a 75:1 treatment to HA molar ratio. The percent degradation was calculated for each measurement by dividing the initial viscosity from the difference of the measured viscosity minus the initial viscosity.
Viscosities of each treatment without hyaluronidase (TES Buffer replaced the hyaluronidase volume) were initially measured and served as the baseline for the percent degradation calculations. The 0 hr timepoint involved the addition of the hyaluronidase, mixing of the solution, pipetting onto the rheometer, and the beginning equilibration operation of the machine. Therefore, the 0 hr timepoint occurred approximately two minutes after the addition of hyaluronidase. […]

[2] = test system: Matrix metalloprotease-I (MMP-I); assay: Collagen protection: degradation of collagen type I in ECM replicates by MMP-I (hydroxyproline assay); format: biochemical; details: CI + HA + treatment, 50 hr at 37° C.
Description: ECM-based constructs containing collagen alone, collagen+HA+CS, or collagen+HA+10.5GAH−CS were created in 8-well chambered slides as described previously. The final sample volume was 200 μL consisting of 0.8 mg of collagen type I. Matrix metalloprotease-I (MMP-I, R&D Systems, Minneapolis, Minn.) at a concentration of 0.133 mg/mL, was activated following the protocol detailed in the manufacturer's instructions. Briefly, MMP-1, already dissolved in manufacturer's buffer (50 mM Tris, 10 mM CaCl2, 150 mM NaCl, 0.05% Brij-35, pH 7.5), was combined with an equal volume of 25 mM APMA (Sigma) in DMSO at 37° C. for 2 hrs to activate the enzyme. Upon activation, the MMP-1 solution was diluted two fold in water and was added to the sample as a 100 μL supernatant. […] Following hydrolysis, the amount of hydroxyproline (hyp) was analyzed according to the protocol developed by Reddy, et al. (Clin Biochem, 1996, 29: 225-9). […] After the development of the chlorophore, the samples were read on a spectrophotometer at a wavelength of 550 nm. Absorbance readings were compared to those obtained from known concentrations of collagen to determine the amount of collagen remaining in each sample.
Each replicate sample was constructed with 0.8 mg of CI, and after degradation, the remaining CI amount was determined by the protocol developed by Reddy et al. and converting that to CI amount by a set of CI standards. […]

[3] = Diffusion of peptidoglycans through cartilage matrix (avidin-biotin stain); details: aggrecan-depleted bovine cartilage explant, 10 μM diffused through articular surface for one hour
Description: Cartilage explants were obtained from the load bearing region of three month old bovine knee joints. Native aggrecan was removed from harvested cartilage explants leaving a matrix consisting primarily of type II collagen and residual GAG. This was achieved by treating explants with 0.5% (w/v) trypsin in HBSS for 3 hours at 37° C. (FIG. 13). After trypsin treatment explants were washed three times in HBSS and incubated with 20% FBS to inactivate residual trypsin activity. Peptidoglycan was dissolved in distilled water at 10 μM concentration and diffused through the articular surface of cartilage explants by placing 10 μL of the solution on the surface every ten minutes for one hour at room temperature (FIG. 14). Normal cartilage and aggrecan depleted cartilage were treated with 1×PBS as positive and negative controls respectively. After diffusion, explants were washed three times with 1×PBS and stored at −20° C. until further testing. Diffusion of peptidoglycan was confirmed by staining a midsagittal section of the tissue with streptavidin-horseradish peroxidase stain. The streptavidin stain binds to the biotin labeled molecule and is depicted as a brown color (FIGS. 15 and 16).

collagen type II = assay: Real-time PCR, collagen type II expression; format: cell-based, bovine
Description: (§1) Following the cell culture study, constructs were stored in RNAlater solution (Ambion) at 4° C. for less than one week. Total mRNA was extracted using Nucleospin RNA II (Clontech) according to manufacturer's protocols. Extracted mRNA from all samples was quantified using Nanodrop 2000 spectrophotometer (Thermo Scientific) and reverse transcribed into cDNA using High Capacity cDNA Reverse Transcriptase Kit (Applied Biosystems). Real-time PCR was performed using Taqman Gene Expression Assays (Applied Biosystems) with the following primers: GAPDH (Bt03210913_gl), aggrecan (Bt03212186_ml) and collagen type II (Bt03251861_ml). 60 ng of cDNA template was prepared per 20 μL reaction for the two genes of interest and the endogenous gene. Real-time PCR analysis was carried out using a Taqman PCR Master Mix and 7500 Real-Time PCR System (Applied Biosystems). Data reported was normalized to GAPDH gene expression.

[4] = test system: bovine chondrocytes in collagen scaffolds; assay: In vitro inflammation model: collagen breakdown (Sircol assay); format: cell-based; details: cumulative over eight-day culture, with and without 20 ng/mL IL-1β, versus scaffolds with CS
Description: (§2) Collagen scaffolds seeded with chondrocytes were stimulated with IL-1β and assessed for degradation products.
(§3) Primary chondrocytes were harvested from three-month-old bovine knee joints obtained from an abattoir within 24 hours of slaughter (Dutch Valley Veal). Cartilage slices, 150-200 μm thick, were shaved from the lateral femoral condyle and washed three times in serum-free DMEM/F-12 medium (50 μg/mL ascorbic acid 2-phosphate, 100 μg/mL sodium pyruvate, 0.1% bovine serum albumin, 100 units/mL penicillin, 100 μg/mL streptomycin and 25 mM HEPES) prior to digestion with 3% fetal bovine serum (FBS) and 0.2% collagenase-P (Roche Pharmaceuticals) at 37° C. for six hours. Released chondrocytes were filtered through 70 μm cell strainer and centrifuged at 1000 rpm three times for five minutes each in medium listed above supplemented with 10% FBS. The cell pellet was resuspended in 10% FBS supplemented media and plated on 10 cm dishes at 10,000 cells/mL in a 37° C., 5% CO2 humidified incubator until confluent. […]
(§4) GAG degradation was monitored by measuring CS released in cell culture media using the dimethylmethylene blue (DMMB) dye assay and computed with a chondroitin-6-sulfate standard curve. Similarly, type I collagen degradation in cell culture media was monitored using the Sircol Collagen Assay using manufacturer specified protocols (Bio-Color). […]

aggrecan = assay: Real-time PCR, aggrecan expression; format: cell-based, bovine; details: chondrocytes in collagen scaffolds with versus without mAGC
Description: as §1

[5] = test system: Sprague-Dawley rat knee joints; assay: Animal model of osteoarthritis (surgical induction), microCT; format: in vivo, Sprague-Dawley rats; details: six and eight weeks after OA induction surgery; 10 μl of a 1 μm mAGC weekly starting at week 4
Description: Sprague-Dawley rats (250-300 g) were used for surgery. The patellar tendon, the anterior and posterior cruciate ligaments and the medial, lateral collateral ligaments were transected. The medial and lateral meniscuses were totally menisectomized. The knee joint capsule was repaired with an absorbable suture and the skin was closed with a 4-0 monofilament nylon. Starting at week 4, 10 μl of a 1 μm mAGC was administered weekly.
The extent of inflammation was indicated by the MMP-13 probe (FIG. 18) in Sprague-Dawley rats treated with and without peptidoglycan at four, six and eight weeks post surgery (FIG. 19). […] Injured knees 6 weeks and 8 weeks following OA induction, (FIG. 21, Panels A and D, respectively), injured knees following peptidoglycan treatment (FIG. 21, Panels B and E, respectively), and Normal knee (FIG. 21, Panel C), are shown.

[6] = test system: bovine chondrocytes in collagen scaffolds; assay: In vitro inflammation model: CS release into media (DMMB assay); format: cell-based; details: cumulative over eight-day culture, with and without 20 ng/mL IL-1β, versus scaffolds with CS
Description: as §2, §3, §4

chondroitin sulfate [CS]
percent degradation of HA ([1]; 0 hr timepoint (about 2 min after hyaluronidase)): almost complete degradation
percent degradation of HA ([1]; 2 hr timepoint): above 90%
percent degradation of CI [2]: 74.7%

mAG(II)C: Collagen type II binding peptidoglycan with peptide WYRGRLGC (SEQ ID NO: 36) (also: attached to glycosaminoglycan backbone)
depth of penetration into tissue [3]: approximately 200 um

mAGC: HA binding peptidoglycan (aggrecan mimic): GAHWQFNALTVRGGGC (SEQ ID NO: 35) peptides attached to chondroitin sulfate; peptide number not stated (also: attached to chondroitin sulfate)
level of collagen type II expression (normalized to GAPDH) (collagen type II; aligned collagen scaffolds): higher in scaffolds prepared with mAGC
level of collagen type II expression (normalized to GAPDH) (collagen type II; unaligned scaffolds): higher in scaffolds prepared without mAGC
amount of collagen released into cell culture media [4]: significantly decreased
aggrecan expression (normalized to GAPDH) (aggrecan): lower aggrecan expression
cartilage by MicroCT [5]: re-growth of new cartilage
amount of CS released into cell culture media [6]: significantly decreased
